Read-outs that look alike come from different tables or passages of the source.
How the values were obtained:
[1] = system: blackgrass (Alopecurus myosuroides); experiment: Test A postemergence; type: in vivo; details: Alopecurus myosuroides, post-emergence, 240 h; for pest or weed control at 125 g/ha: 125 g ai/ha; for pest or weed control at 500 g/ha: 500 g ai/ha, 0 to 100 scale, 0 is no effect, 100 is complete control
In short: (§1)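 Treatment is preemergence as a directed soil spray after planting, or postemergence at the one- to two-leaf stage, with test chemical in a non-phytotoxic solvent mixture plus surfactant. Plants stay in the greenhouse about 10 d before visual injury scoring on a 0 to 100 scale versus untreated controls.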

[2] = system: ragweed (common ragweed, Ambrosia elatior); experiment: Test A postemergence; type: in vivo; details: Ambrosia artemisiifolia, post-emergence, 240 h; for pest or weed control at 125 g/ha: 125 g ai/ha; for pest or weed control at 500 g/ha: 500 g ai/ha, 0 to 100 scale, 0 is no effect, 100 is complete control
In short: as §1

[3] = system: Galium (catchweed bedstraw, Galium aparine); experiment: Test A postemergence; type: in vivo; details: Galium, post-emergence, 240 h; for pest or weed control at 125 g/ha: 125 g ai/ha; for pest or weed control at 500 g/ha: 500 g ai/ha, 0 to 100 scale, 0 is no effect, 100 is complete control
In short: as §1

[4] = system: ryegrass, Italian (Italian ryegrass, Lolium multiflorum); experiment: Test A postemergence; type: in vivo; details: Lolium multiflorum, post-emergence, 240 h; for pest or weed control at 125 g/ha: 125 g ai/ha; for pest or weed control at 500 g/ha: 500 g ai/ha, 0 to 100 scale, 0 is no effect, 100 is complete control
In short: as §1

[5] = system: pigweed (Amaranthus retroflexus); experiment: Test A postemergence; type: in vivo; details: Amaranthus retroflexus, post-emergence, 240 h; for pest or weed control at 125 g/ha: 125 g ai/ha; for pest or weed control at 500 g/ha: 500 g ai/ha, 0 to 100 scale, 0 is no effect, 100 is complete control
In short: as §1

[6] = system: corn (Zea mays); experiment: Test A postemergence; type: in vivo; details: Zea mays, post-emergence, 240 h; for plant injury at 125 g/ha / Corn plant response rating (crop injury, 0 = no effect, 100 = complete kill) at 125 g/ha: 125 g ai/ha; for plant injury at 125 g/ha / plant injury at 500 g/ha: postemergence; for plant injury at 500 g/ha: 500 g ai/ha, 0 to 100 scale, 0 is no effect, 100 is complete control; for Corn plant response rating (crop injury, 0 = no effect, 100 = complete kill) at 125 g/ha: Postemergence, visual injury after approximately 10 d, 0 to 100 scale where 0 is no effect and 100 is complete control
In short: as §1

[7] = postemergence, visual injury on 0 to 100 scale (0 no effect, 100 complete control), approx. 10 d, read-out: Blackgrass plant response rating
[8] = postemergence, read-out: Blackgrass plant response rating
[9] = postemergence, read-out: Ragweed plant response rating
[10] = postemergence, visual injury on 0 to 100 scale (0 no effect, 100 complete control), approx. 10 d, read-out: Galium plant response rating
[11] = postemergence, read-out: Galium plant response rating
[12] = postemergence, read-out: Ryegrass, Italian plant response rating
[13] = postemergence, read-out: Pigweed plant response rating
[14] = visual injury on 0 to 100 scale (0 no effect, 100 complete control), approx. 10 d, read-out: Corn plant response rating
[15] = read-out: Corn plant response rating
[16] = Postemergence, visual injury after approximately 10 d, 0 to 100 scale where 0 is no effect and 100 is complete control, read-out: Plant response rating, Blackgrass
[17] = Postemergence, visual injury after approximately 10 d, 0 to 100 scale where 0 is no effect and 100 is complete control, read-out: Plant response rating, Ragweed
[18] = Postemergence, visual injury after approximately 10 d, 0 to 100 scale where 0 is no effect and 100 is complete control, read-out: Plant response rating, Galium
[19] = Postemergence, visual injury after approximately 10 d, 0 to 100 scale where 0 is no effect and 100 is complete control, read-out: Plant response rating, Ryegrass, Italian
[20] = Postemergence, visual injury after approximately 10 d, 0 to 100 scale where 0 is no effect and 100 is complete control, read-out: Plant response rating, Pigweed
[21] = postemergence, visual injury on 0 to 100 scale (0 no effect, 100 complete control), approx. 10 d, read-out: Ragweed plant response rating
[22] = postemergence, visual injury on 0 to 100 scale (0 no effect, 100 complete control), approx. 10 d, read-out: Ryegrass, Italian plant response rating
[23] = postemergence, visual injury on 0 to 100 scale (0 no effect, 100 complete control), approx. 10 d, read-out: Pigweed plant response rating

Row | Compound | melting point [°C] | pest or weed control at 125 g/ha [1, 7] [%] | pest or weed control at 500 g/ha [1, 8] [%] | pest or weed control at 500 g/ha [2, 9] [%] | pest or weed control at 125 g/ha [3, 10] [%] | pest or weed control at 500 g/ha [3, 11] [%] | pest or weed control at 500 g/ha [4, 12] [%] | pest or weed control at 500 g/ha [5, 13] [%] | plant injury at 125 g/ha [6, 14] [%] | plant injury at 500 g/ha [6, 15] [%] | pest or weed control at 125 g/ha [1, 16] [%] | pest or weed control at 125 g/ha [2, 17] [%] | pest or weed control at 125 g/ha [3, 18] [%] | pest or weed control at 125 g/ha [4, 19] [%] | pest or weed control at 125 g/ha [5, 20] [%] | Corn plant response rating (crop injury, 0 = no effect, 100 = complete kill) at 125 g/ha [6] [%] | pest or weed control at 125 g/ha [2, 21] [%] | pest or weed control at 125 g/ha [4, 22] [%] | pest or weed control at 125 g/ha [5, 23] [%] | further results
1 | CN1CC(c2cccc(I)c2)C(C(=O)Nc2ccccc2F)C1=O (stereo not drawn) [Compound 846] | 132 to 135 | – | – | – | – | – | – | – | – | – | – | – | – | – | – | – | – | – | – | pest or weed control at 125 g/ha ([1]; postemergence, visual injury rating after approximately 10 d, read-out: Blackgrass plant response rating (0 to 100 scale, 0 no effect, 100 complete control)): 50%; pest or weed control at 125 g/ha ([2]; postemergence, visual injury rating after approximately 10 d, read-out: Ragweed plant response rating (0 to 100 scale, 0 no effect, 100 complete control)): 0%; pest or weed control at 125 g/ha ([3]; postemergence, visual injury rating after approximately 10 d, read-out: Galium plant response rating (0 to 100 scale, 0 no effect, 100 complete control)): 0%; pest or weed control at 125 g/ha ([4]; postemergence, visual injury rating after approximately 10 d, read-out: Ryegrass, Italian plant response rating (0 to 100 scale, 0 no effect, 100 complete control)): 70%; pest or weed control at 125 g/ha ([5]; postemergence, visual injury rating after approximately 10 d, read-out: Pigweed plant response rating (0 to 100 scale, 0 no effect, 100 complete control)): 0%; plant injury at 125 g/ha ([6]; visual injury rating after approximately 10 d, read-out: Corn plant response rating (0 to 100 scale, 0 no effect, 100 complete control)): 60%
2 | CN1C[C@H](c2ccc(C(F)(F)F)cc2)[C@@H](C(=O)Nc2ccccc2[S+](C)[O-])C1=O (stereo partly drawn) [Compound 915] | 181 to 184 | – | – | – | – | – | – | – | – | – | 40 | 30 | 50 | 30 | 60 | 0 | – | – | – | –
3 | CN1C[C@H](c2ccc(C(F)(F)F)cc2)[C@@H](C(=O)Nc2ccc(F)cc2Br)C1=O [Compound 934] | 123 to 126 | – | – | – | – | – | – | – | – | – | 0 | 0 | 60 | 0 | 20 | 20 | – | – | – | –
4 | Cc1cc(F)ccc1NC(=O)[C@H]1C(=O)N(C)C[C@@H]1c1ccc(C(F)(F)F)cc1 [Compound 936] | 119 to 122 | – | – | – | – | – | – | – | – | – | 30 | 0 | 40 | 0 | 20 | 30 | – | – | – | –
5 | Cc1cccc(NC(=O)[C@H]2C(=O)N(C)C[C@@H]2c2ccc(C(F)(F)F)cc2)c1F [Compound 939] | 178 to 181 | – | – | – | – | – | – | – | – | – | 0 | 0 | 20 | 0 | 0 | 0 | – | – | – | –
6 | Cc1cccc(NC(=O)[C@H]2C(=O)N(C)C[C@@H]2c2ccc(C(F)(F)F)cc2)c1C [Compound 941] | 166 to 169 | – | – | – | – | – | – | – | – | – | 0 | 0 | 20 | 0 | 0 | 0 | – | – | – | –
7 | CN1C[C@H](c2ccc(C(F)(F)F)cc2)[C@@H](C(=O)Nc2ccc(F)cc2C(F)(F)F)C1=O [Compound 942] | 113 to 116 | – | – | – | – | – | – | – | – | – | 70 | 0 | 50 | 0 | 70 | 0 | – | – | – | –

Continued, in another order:

Row | melting point [°C] | Compound | pest or weed control at 125 g/ha [1, 7] [%] | pest or weed control at 500 g/ha [1, 8] [%] | pest or weed control at 500 g/ha [2, 9] [%] | pest or weed control at 125 g/ha [3, 10] [%] | pest or weed control at 500 g/ha [3, 11] [%] | pest or weed control at 500 g/ha [4, 12] [%] | pest or weed control at 500 g/ha [5, 13] [%] | plant injury at 125 g/ha [6, 14] [%] | plant injury at 500 g/ha [6, 15] [%] | pest or weed control at 125 g/ha [1, 16] [%] | pest or weed control at 125 g/ha [2, 17] [%] | pest or weed control at 125 g/ha [3, 18] [%] | pest or weed control at 125 g/ha [4, 19] [%] | pest or weed control at 125 g/ha [5, 20] [%] | Corn plant response rating (crop injury, 0 = no effect, 100 = complete kill) at 125 g/ha [6] [%] | pest or weed control at 125 g/ha [2, 21] [%] | pest or weed control at 125 g/ha [4, 22] [%] | pest or weed control at 125 g/ha [5, 23] [%] | further results
8 | 102 to 106 | O=C1NC[C@H](c2ccc(F)c(OC(F)(F)C(F)F)c2)[C@H]1C(=O)Nc1ccc(F)cc1F (racemic) [Compound 1154] | 70 | 90 | 40 | 60 | 70 | 50 | 70 | 90 | 90 | – | – | – | – | – | – | – | – | – | pest or weed control at 125 g/ha ([2]; postemergence, visual injury vs untreated controls after approx. 10 d, 0 = no effect, 100 = complete control, read-out: Ragweed plant response rating (0 to 100 scale)): 0%; pest or weed control at 125 g/ha ([4]; postemergence, visual injury vs untreated controls after approx. 10 d, 0 = no effect, 100 = complete control, read-out: Ryegrass, Italian plant response rating (0 to 100 scale)): 30%; pest or weed control at 125 g/ha ([5]; postemergence, visual injury vs untreated controls after approx. 10 d, 0 = no effect, 100 = complete control, read-out: Pigweed plant response rating (0 to 100 scale)): 60%
9 | 128 to 132 | CCc1cccc([C@H]2CCNC(=O)[C@@H]2C(=O)Nc2cccc(F)c2F)c1 [Compound 1058] | 30 | 40 | 90 | 50 | 60 | 0 | 0 | 0 | 30 | – | – | – | – | – | – | 80 | 0 | 0 | –
10 | 97 to 101 | CN1CC(c2cccc(/C=C/Cl)c2)C(C(=O)Nc2ccccc2F)C1=O (stereo not drawn) [Compound 1129] | 0 | 0 | 0 | 0 | 0 | 0 | 0 | 0 | 0 | – | – | – | – | – | – | 0 | 0 | 0 | –
11 | 216 to 220 | CN1CC(c2cccc(O)c2)C(C(=O)Nc2cccc(F)c2F)C1=O (stereo not drawn) [Compound 1130] | 0 | 0 | 0 | 0 | 0 | 0 | 0 | 0 | 0 | – | – | – | – | – | – | 0 | 0 | 0 | –
12 | 119 to 123 | O=C1NC[C@H](c2ccc(F)c(OC(F)(F)C(F)F)c2)[C@H]1C(=O)Nc1ccccc1F [Compound 1133] | 30 | 70 | 70 | 70 | 70 | 40 | 70 | 50 | 80 | – | – | – | – | – | – | 60 | 20 | 0 | –
